Measured values: ChEMBL document CHEMBL1201862, “PubChem BioAssay data set” (2004)
Active and inactive are the calls of the source.

Tests used:
[1] = molecular target: T1, DNA repair and recombination protein RAD54-like (Homo sapiens, UniProt Q92698); test: RAD54 Holliday junction migration blockers – biochemical, fluorescence, cherry-picked samples, dose series, confirmation (AID 651657); assay type: functional
T1 sequence (Q92698 whole entry): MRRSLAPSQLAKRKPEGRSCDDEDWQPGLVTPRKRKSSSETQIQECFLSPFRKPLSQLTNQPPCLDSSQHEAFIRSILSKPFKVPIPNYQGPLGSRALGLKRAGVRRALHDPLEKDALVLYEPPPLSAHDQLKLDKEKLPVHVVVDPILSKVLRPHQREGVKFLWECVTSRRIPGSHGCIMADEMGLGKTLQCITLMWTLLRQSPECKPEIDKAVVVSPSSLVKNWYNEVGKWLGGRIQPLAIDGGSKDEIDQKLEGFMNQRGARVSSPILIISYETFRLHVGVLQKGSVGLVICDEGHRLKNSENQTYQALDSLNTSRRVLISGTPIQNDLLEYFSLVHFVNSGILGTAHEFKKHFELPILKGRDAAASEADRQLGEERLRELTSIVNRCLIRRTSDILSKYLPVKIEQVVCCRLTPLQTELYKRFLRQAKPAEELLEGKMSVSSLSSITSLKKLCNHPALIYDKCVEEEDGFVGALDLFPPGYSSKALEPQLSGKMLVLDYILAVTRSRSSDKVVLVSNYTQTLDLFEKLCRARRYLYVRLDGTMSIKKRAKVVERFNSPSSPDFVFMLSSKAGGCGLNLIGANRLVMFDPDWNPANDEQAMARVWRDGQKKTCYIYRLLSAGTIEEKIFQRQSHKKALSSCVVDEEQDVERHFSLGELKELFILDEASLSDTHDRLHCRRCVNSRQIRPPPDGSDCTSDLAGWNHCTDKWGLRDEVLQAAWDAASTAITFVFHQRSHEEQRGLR

[2] = molecular target: T2, DNA repair protein RAD52 homolog (Homo sapiens, UniProt P43351); assay type: functional, biochemical
T2 sequence (P43351 whole entry): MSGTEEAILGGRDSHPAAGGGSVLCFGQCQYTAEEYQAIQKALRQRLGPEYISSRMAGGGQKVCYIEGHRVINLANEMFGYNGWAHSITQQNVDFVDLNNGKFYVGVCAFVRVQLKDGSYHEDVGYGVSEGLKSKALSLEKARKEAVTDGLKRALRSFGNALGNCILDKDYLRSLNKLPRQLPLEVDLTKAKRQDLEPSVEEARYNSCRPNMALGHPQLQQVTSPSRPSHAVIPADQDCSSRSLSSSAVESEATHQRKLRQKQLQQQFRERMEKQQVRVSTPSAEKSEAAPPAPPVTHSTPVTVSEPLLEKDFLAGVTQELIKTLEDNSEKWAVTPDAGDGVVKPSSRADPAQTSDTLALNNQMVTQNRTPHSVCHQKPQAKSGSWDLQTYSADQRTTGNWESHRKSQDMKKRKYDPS

Fatty acid synthase [3] = molecular target: T3, Fatty acid synthase (Homo sapiens, UniProt P49327); test: inhibition of human FAS-TE enzyme activity – biochemical, kinetic fluorescence intensity, dose response (AID 624326); assay type: functional;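 also: rate of fluorescence rise from hydrolysis of a fluorogenic O-methyl fluorescein ester substrate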
Fatty acid synthase [4] = molecular target: T3, Fatty acid synthase; test: inhibition of human FAS-TE enzyme activity – biochemical, endpoint fluorescence intensity, uHTS hits, dose response (AID 624327); assay type: functional;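 also: fluorescence from hydrolysis of an O-methyl fluorescein acyl ester substrate by the enzyme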
[5] = HIV-1 AD8 envelope cell-cell fusion blockers – cherry-pick, dose response (AID 652062); assay type: functional, cell-based;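 also: luciferase signal from cell-cell fusion driven by HIV-1 clade B AD8 Env; potency is for inhibitors of fusion seen as a drop in luminescence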
[6] = blockers of HIV-1 ZM109 envelope-driven cell-cell fusion – HeLa effector, CEM target cells, luciferase, cherry-pick, dose response (AID 652058); assay type: functional, cell-based;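 also: luciferase signal from HIV-1 Env mediated cell-cell fusion of effector and target cells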
Protein skinhead-1 = molecular target: T4, Protein skinhead-1 (Caenorhabditis elegans, UniProt P34707); assay type: functional
T4 sequence (P34707 whole entry): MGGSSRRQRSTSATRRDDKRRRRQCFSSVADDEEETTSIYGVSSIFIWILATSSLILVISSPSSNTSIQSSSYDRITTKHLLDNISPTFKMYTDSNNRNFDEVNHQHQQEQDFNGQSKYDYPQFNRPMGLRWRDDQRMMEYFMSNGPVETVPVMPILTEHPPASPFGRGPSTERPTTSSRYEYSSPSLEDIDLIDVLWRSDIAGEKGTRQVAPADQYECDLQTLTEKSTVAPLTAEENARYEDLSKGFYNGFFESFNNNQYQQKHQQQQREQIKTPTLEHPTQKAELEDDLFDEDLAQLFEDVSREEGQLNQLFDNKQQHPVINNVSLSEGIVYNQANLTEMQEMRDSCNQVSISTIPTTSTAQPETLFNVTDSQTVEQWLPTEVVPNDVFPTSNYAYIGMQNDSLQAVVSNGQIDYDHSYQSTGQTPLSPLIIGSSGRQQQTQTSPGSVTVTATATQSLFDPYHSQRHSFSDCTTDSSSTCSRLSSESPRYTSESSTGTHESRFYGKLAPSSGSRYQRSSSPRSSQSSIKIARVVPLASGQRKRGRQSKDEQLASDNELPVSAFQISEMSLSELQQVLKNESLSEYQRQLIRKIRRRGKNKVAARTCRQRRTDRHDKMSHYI

[7] = molecular target: T5, RNA-binding protein pos-1 (Caenorhabditis elegans, UniProt G5EF15); test: disruptors of C. elegans POS-1 RNA interaction – biochemical, fluorescence polarization, dose response (AID 1964);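 also: purified POS-1 fused to maltose binding protein made in E. coli; potency of compounds blocking POS-1 binding to fluorescent RNA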
T5 sequence (G5EF15 whole entry): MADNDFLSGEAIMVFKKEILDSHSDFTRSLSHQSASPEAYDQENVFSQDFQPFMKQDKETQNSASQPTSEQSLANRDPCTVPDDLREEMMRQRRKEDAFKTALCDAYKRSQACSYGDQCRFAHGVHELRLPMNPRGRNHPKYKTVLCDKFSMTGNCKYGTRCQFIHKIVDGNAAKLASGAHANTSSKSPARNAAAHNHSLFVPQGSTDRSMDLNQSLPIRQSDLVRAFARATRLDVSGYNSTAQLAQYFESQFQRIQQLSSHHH

[8] = molecular target: T6, Zinc finger protein mex-5 (Caenorhabditis elegans, UniProt Q9XUB2); test: potency of MEX-5 RNA-binding blockers – biochemical, C. elegans, fluorescence polarization, dose response (AID 1960)
T6 sequence (Q9XUB2 whole entry): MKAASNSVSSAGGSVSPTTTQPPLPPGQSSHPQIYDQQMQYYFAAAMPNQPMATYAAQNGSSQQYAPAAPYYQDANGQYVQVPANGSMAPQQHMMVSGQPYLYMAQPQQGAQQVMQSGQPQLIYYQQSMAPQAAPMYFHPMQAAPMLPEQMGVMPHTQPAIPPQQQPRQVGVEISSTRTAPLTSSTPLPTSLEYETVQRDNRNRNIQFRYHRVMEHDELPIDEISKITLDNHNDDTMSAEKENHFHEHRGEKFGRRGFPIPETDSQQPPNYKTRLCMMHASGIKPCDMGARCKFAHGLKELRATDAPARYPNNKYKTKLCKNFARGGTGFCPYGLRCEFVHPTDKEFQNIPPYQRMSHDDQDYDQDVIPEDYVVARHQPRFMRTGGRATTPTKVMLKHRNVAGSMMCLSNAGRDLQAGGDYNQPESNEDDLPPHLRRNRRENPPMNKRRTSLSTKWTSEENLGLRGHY

Aminopeptidase N = molecular target: T7, Aminopeptidase N (Plasmodium falciparum FcB1/Columbia, UniProt O96935); test: malaria alanyl aminopeptidase activity blockers – biochemical, fluorogenic H-Leu-NHMec substrate, 1536-well (AID 1445); set-up: species or system Plasmodium falciparum 3D7, 3D7
T7 sequence (O96935 whole entry): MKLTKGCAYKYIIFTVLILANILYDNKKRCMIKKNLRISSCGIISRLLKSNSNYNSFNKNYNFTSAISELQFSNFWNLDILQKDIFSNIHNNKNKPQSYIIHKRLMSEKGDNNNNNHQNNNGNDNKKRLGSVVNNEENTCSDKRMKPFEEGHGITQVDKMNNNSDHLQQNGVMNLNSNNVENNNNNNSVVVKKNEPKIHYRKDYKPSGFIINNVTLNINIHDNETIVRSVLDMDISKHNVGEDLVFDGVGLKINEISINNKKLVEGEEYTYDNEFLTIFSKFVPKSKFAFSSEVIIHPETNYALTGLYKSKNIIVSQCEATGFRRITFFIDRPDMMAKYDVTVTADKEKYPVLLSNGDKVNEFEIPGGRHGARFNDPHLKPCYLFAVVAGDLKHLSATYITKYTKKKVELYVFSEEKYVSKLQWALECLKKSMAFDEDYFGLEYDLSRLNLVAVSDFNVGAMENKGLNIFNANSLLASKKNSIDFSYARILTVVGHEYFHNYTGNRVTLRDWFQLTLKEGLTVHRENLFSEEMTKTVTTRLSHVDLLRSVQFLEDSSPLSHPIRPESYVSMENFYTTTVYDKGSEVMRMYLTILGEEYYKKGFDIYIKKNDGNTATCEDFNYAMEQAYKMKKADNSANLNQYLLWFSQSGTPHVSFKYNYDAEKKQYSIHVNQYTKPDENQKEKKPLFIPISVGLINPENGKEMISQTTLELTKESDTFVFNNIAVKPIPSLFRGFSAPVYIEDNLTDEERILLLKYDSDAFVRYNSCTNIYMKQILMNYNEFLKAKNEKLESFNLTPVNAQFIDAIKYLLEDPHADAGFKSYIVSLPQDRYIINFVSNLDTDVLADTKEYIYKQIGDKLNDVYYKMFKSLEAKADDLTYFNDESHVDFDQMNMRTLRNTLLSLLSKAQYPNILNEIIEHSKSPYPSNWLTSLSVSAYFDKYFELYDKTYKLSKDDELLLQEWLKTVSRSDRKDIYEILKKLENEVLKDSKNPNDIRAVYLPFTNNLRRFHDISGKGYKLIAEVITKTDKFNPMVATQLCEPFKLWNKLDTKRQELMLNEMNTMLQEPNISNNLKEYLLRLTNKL

Cytochrome P450 2C9 = Cytochrome P450 2C9 (Homo sapiens, UniProt P11712)
[9] = blockers of HIV-1 envelope-mediated cell-cell fusion – cherry-pick, dose response (AID 652057); assay type: functional, cell-based
[10] = molecular target: T8, Rac GTPase-activating protein 1 (Homo sapiens, UniProt Q9H0H5); test: blockers of MgcRacGAP-driven Rac1 GTP hydrolysis – biochemical, ADP Hunter fluorescence, primary and confirmatory, confirmation (AID 624330); assay type: functional
T8 sequence (Q9H0H5 whole entry): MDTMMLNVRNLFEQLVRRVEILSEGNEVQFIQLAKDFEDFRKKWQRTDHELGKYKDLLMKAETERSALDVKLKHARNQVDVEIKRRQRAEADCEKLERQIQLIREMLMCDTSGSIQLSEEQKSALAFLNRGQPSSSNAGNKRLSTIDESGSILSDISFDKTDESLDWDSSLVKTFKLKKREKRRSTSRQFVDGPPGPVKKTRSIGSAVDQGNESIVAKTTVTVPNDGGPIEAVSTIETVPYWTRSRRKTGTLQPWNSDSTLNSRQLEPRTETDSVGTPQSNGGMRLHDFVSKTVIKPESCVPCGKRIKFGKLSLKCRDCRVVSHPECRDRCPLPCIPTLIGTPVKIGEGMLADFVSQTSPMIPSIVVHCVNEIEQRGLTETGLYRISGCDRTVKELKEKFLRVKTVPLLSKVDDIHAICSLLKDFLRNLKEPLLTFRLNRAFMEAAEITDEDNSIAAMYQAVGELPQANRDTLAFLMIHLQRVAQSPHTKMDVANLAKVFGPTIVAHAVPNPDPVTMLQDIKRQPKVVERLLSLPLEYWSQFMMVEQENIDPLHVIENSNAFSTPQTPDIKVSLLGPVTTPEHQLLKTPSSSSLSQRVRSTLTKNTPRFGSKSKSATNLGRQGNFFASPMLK

T3 sequence (P49327 whole entry): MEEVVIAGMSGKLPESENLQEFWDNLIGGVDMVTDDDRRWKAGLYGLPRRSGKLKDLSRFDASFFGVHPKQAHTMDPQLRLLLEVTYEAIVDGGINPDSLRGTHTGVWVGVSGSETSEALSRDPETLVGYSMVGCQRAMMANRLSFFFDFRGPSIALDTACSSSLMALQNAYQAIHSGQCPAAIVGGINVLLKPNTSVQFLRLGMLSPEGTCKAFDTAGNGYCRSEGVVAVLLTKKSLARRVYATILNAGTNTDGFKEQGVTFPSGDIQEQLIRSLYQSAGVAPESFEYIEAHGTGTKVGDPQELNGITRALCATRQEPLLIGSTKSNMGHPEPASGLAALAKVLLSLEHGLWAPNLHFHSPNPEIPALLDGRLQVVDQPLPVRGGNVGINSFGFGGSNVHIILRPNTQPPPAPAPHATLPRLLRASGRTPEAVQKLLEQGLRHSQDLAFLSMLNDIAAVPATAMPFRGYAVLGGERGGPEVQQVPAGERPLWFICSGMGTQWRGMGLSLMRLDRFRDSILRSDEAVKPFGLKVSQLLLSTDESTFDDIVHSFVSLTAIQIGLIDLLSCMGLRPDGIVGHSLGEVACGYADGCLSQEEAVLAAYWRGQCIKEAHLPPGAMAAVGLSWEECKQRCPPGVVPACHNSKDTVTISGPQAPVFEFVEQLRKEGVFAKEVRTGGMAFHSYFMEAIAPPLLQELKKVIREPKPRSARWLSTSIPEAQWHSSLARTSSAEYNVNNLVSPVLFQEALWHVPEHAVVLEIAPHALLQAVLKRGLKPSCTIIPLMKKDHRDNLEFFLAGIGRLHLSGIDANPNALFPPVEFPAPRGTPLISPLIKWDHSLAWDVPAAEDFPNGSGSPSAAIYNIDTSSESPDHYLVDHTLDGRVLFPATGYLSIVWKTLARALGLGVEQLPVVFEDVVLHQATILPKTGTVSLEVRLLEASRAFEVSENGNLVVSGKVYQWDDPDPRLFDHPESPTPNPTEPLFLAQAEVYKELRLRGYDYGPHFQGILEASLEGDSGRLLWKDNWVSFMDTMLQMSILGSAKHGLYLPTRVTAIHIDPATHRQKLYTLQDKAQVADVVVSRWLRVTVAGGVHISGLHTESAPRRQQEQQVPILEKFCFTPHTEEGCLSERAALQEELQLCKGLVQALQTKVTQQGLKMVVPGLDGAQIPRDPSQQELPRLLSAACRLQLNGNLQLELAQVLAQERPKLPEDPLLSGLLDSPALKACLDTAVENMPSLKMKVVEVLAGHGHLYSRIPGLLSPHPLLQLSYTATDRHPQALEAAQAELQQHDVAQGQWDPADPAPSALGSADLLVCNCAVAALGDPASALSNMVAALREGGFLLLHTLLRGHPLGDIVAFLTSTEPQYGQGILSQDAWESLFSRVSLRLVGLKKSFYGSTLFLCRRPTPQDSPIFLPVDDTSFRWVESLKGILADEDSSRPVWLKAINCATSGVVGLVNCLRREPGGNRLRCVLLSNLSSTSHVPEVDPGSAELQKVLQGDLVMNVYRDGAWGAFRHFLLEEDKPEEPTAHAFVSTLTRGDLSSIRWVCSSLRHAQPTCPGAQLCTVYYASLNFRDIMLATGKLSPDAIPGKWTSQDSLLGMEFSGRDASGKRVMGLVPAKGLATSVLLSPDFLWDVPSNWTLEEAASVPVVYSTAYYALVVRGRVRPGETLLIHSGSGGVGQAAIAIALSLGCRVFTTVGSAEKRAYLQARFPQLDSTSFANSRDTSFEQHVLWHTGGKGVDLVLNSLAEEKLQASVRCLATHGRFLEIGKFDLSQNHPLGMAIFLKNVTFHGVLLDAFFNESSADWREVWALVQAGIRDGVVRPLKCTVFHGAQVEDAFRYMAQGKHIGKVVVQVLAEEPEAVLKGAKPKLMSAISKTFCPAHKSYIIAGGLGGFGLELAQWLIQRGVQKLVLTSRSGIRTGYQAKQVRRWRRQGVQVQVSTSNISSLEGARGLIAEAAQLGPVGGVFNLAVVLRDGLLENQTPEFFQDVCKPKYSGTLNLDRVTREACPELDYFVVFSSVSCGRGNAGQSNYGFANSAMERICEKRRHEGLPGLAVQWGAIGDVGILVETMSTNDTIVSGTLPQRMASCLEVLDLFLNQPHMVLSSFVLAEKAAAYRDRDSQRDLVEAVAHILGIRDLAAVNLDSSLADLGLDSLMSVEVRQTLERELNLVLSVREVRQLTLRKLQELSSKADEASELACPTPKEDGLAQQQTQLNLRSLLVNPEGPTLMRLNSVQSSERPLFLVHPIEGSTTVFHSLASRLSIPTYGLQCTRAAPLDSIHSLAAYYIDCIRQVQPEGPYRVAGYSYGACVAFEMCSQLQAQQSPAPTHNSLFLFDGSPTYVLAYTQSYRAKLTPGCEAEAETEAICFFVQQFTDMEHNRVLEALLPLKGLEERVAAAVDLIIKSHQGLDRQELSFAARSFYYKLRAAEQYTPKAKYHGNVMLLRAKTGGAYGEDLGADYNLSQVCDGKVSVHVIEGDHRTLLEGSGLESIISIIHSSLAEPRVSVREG
Sequence of Cytochrome P450 2C9 (P11712 whole entry, the tested form may be a part): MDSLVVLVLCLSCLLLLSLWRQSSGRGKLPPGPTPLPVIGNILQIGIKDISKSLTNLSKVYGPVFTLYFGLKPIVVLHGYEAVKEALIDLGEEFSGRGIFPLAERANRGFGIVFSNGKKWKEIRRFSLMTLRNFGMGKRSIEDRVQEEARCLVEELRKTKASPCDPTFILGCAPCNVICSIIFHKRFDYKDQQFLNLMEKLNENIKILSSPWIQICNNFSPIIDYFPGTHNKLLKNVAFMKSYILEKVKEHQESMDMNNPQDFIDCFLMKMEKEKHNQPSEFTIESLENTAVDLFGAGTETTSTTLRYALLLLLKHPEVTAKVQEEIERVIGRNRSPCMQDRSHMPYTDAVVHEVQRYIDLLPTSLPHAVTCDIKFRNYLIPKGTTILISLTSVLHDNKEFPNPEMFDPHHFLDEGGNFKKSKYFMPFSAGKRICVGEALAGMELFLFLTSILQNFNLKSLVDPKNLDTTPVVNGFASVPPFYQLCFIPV

SMILES	IC50 (Fatty acid synthase [3])	IC50 (Fatty acid synthase [4])	IC50 (Protein skinhead-1)	further results
CCCCN(CC)CCCNC(=S)Nc1ccc2nc(N3CCN(C)CC3)cc(C)c2c1				AC50 [1]: 30.8 µM (active); AC50 [2]: 1.95 µM (active)
COc1ccc(N2CCn3c2nc2c3c(=O)n(CCCc3ccccc3)c(=O)n2C)c(OC)c1				AC50 [5]: 5.71 µM (active); AC50 [6]: 0.572 µM (active)
Cc1cccc(C)c1OCC(=O)Nc1nnc(C2CCCO2)s1 (stereo not drawn)			> 100 µM (inactive)	
CN1C(=O)S/C(=C/c2cccn2-c2cccc(C(=O)O)c2)C1=O				EC50 [7]: > 300 µM (not active); EC50 [8]: > 300 µM (not active); IC50 (Aminopeptidase N): 84.3 µM (active)
O=[N+]([O-])c1ccc(N2CCc3ccccc3C2)cc1			> 100 µM (inactive)	
Clc1ccc(Cc2nc(-c3cccnc3)no2)cc1			36.4 µM (active)	AC50 (Cytochrome P450 2C9): 28.2 µM (inconclusive)
Cc1cccnc1Nc1nc(-c2ccc(F)cc2)cs1			89.2 µM (inactive)	
CCN(CC)CCn1c2ccc(Cl)cc2c2nc(C)sc21				AC50 [1]: 22.1 µM (active); AC50 [2]: 5.39 µM (active)
C[C@H](CO)N1C[C@H](C)[C@@H](CN(C)Cc2ccncc2)Oc2cc(C3=CCCCC3)ccc2S1(=O)=O				AC50 [6]: 12.3 µM (active); AC50 [9]: 13.4 µM (active)
O=C(CCC(=O)Nc1ccc(Br)cc1)N/N=C/c1cc([N+](=O)[O-])ccc1O	8.73 µM (active)	12.9 µM (active)		
Oc1ccc(Nc2ccnc3cc(Cl)ccc23)cc1				IC50 [10]: 28.1 µM (active); AC50 [1]: 80.3 µM (active)

Now from value to compound, other results behind:

IC50 (Fatty acid synthase [3])	IC50 (Fatty acid synthase [4])	IC50 (Protein skinhead-1)	SMILES	further results
4.11 µM (active)	0.87 µM (active)		CN(C)CCCNC(=O)/C(=C\C=C\c1ccccc1)NC(=O)c1ccc([N+](=O)[O-])cc1	
2.1 µM (active)	2.92 µM (active)		COc1ccc(NC(=O)COC(=O)c2cc([N+](=O)[O-])ccc2N2CCOCC2)cc1	
		> 100 µM (inactive)	CC(CCc1ccco1)NC(=O)CSc1cc(=O)n(C)c2ccccc12 (stereo not drawn)	
7.55 µM (active)	16.8 µM (active)		O=C(N/C(=C/c1ccccc1)C(=O)N1CCOCC1)c1ccc([N+](=O)[O-])cc1	
		> 100 µM (inactive)	CCN(CCCNC(=O)CC(C(=O)N1CCc2ccccc21)n1ccnc1)c1cccc(C)c1 (stereo not drawn)	
13.5 µM (active)	8.07 µM (active)		CN(Cc1ccccc1)C(=O)COC(=O)c1cc(Cl)nc(Cl)c1	
8.98 µM (active)	8.17 µM (active)		O=C(COC(=O)c1cc([N+](=O)[O-])ccc1NCCO)c1ccccc1	
		> 100 µM (inactive)	Nc1sccc1C(=O)NCc1ccccc1	
